Data: patent US20100280019A1, “ISOXAZOLES” (priority 2009, published 2010)

The compounds below were run against T1, GABA A α5 (human receptors of composition α5β3γ2) (Homo sapiens, UniProt P18507+P31644) (assay: [3H]flumazenil competition binding, HEK293 cells expressing human GABA A α5β3γ2 receptors). Conditions: [3H]-Flumazenil 0.5 nM, means of two determinations, read-out: hKi (GABA Aα5).
T1 construct: expressed in transfected cells; host or cells: HEK293, transiently transfected; membranes prepared from cell pellets
Description: The affinity of compounds at GABA A receptor subtypes was measured by competition for [^3H]flumazenil (85 Ci/mmol; Roche) binding to HEK293 cells expressing rat (stably transfected) or human (transiently transfected) receptors of composition α1β3γ2, α2β3γ2, α3β3γ2 and α5β3γ2.
Cell pellets were suspended in Krebs-tris buffer (4.8 mM KCl, 1.2 mM CaCl2, 1.2 mM MgCl2, 120 mM NaCl, 15 mM Tris; pH 7.5; binding assay buffer), homogenized by polytron for ca. 20 sec on ice and centrifuged for 60 min at 4° C. (50000 g; Sorvall, rotor: SM24=20000 rpm). The cell pellets were resuspended in Krebs-tris buffer and homogenized by polytron for ca. 15 sec on ice. Protein was measured (Bradford method, Bio-Rad) and aliquots of 1 mL were prepared and stored at −80° C.
Radioligand binding assays were carried out in a volume of […] (96-well plates) which contained […] of cell membranes, [^3H]-Flumazenil at a concentration of 1 nM for α1, α2, α3 subunits and 0.5 nM for α5 subunits and the test compound in the range of […]. Nonspecific binding was defined by 10^−5 M diazepam and typically represented less than 5% of the total binding. Assays were incubated to equilibrium for 1 hour at 4° C. and harvested onto GF/C uni-filters (Packard) by filtration using a Packard harvester and washing with ice-cold wash buffer (50 mM Tris; pH 7.5). After drying, filter-retained radioactivity was detected by liquid scintillation counting. Ki values were calculated using Excel-Fit (Microsoft) and are the means of two determinations.
Representative test results, obtained by the above described assay measuring binding affinity to HEK293 cells expressing human (h) receptors, are shown in table 1 below.

**Q.** Which Ki does the source give for CCCCc1noc(C)c1COc1ccc(C(=O)NN(C)C)cn1 [Example 10, 6-((3-Butyl-5-methyl-isoxazol-4-yl)-methoxy)-nicotinic acid 2,2-dimethyl-hydrazide] here?
**A.** 18.7 nM

**Q.** Cc1onc(-c2ccccc2)c1COc1ccc(C(=O)NNS(C)(=O)=O)cn1 [Example 6, 6-((5-Methyl-3-phenyl-isoxazol-4-yl)-methoxy)-nicotinic acid N′-(methylsulfonyl)-hydrazide] was tested. Which Ki did it give?
**A.** 4.8 nM

**Q.** For Cc1onc(-c2ccccc2)c1COc1ccc(C(=O)NN2CCS(=O)(=O)CC2)cn1 [Example 5, N-(1,1-Dioxo-1,6-thiomorpholin-4-yl)-6-((5-methyl-3-phenyl-isoxazol-4-yl)-methoxy)-nicotinamide], which Ki is on record?
**A.** 2.6 nM

**Q.** Cc1onc(-c2ccccc2)c1COc1ccc(C(=O)NN2CCOCC2)nn1 [Example 11, 6-((5-Methyl-3-phenyl-isoxazol-4-yl)-methoxy)-pyridazine-3-carboxylic acid morpholin-4-ylamide] was tested. Which Ki did it give?
**A.** 9.5 nM

**Q.** Cc1onc(-c2ccc(F)cn2)c1COc1ccc(C(=O)NN2CCOCC2)cn1 [Example 7, 6-[(3-(5-Fluoro-pyridin-2-yl)-5-methyl-isoxazol-4-yl)-methoxy]-N-morpholin-4-yl-nicotinamide] was tested. Which Ki did it give?
**A.** 0.4 nM

**Q.** With Cc1onc(-c2ccccc2)c1COc1ccc(C(=O)NN)cn1 [Example 1, 6-((5-Methyl-3-phenyl-isoxazol-4-yl)-methoxy)-nicotinic acid hydrazide] as the compound, how does the Ki read?
**A.** 5.4 nM

**Q.** Cc1onc(-c2ccccc2)c1COc1ccc(C(=O)NN2CCOCC2)cn1 [Example 2, 6-((5-Methyl-3-phenyl-isoxazol-4-yl)-methoxy)-N-morpholin-4-yl-nicotinamide] was tested. Which Ki did it give?
**A.** 0.6 nM

**Q.** For CCCCc1noc(C)c1COc1ccc(C(=O)NN2CCCC2)cn1 [Example 9, 6-((3-Butyl-5-methyl-isoxazol-4-yl)-methoxy)-N-pyrrolidin-1-yl-nicotinamide], which Ki is on record?
**A.** 19.4 nM

**Q.** With Cc1onc(-c2ccccc2)c1COc1ccc(C(=O)NN2CCCCC2)cn1 [Example 3, 6-((5-Methyl-3-phenyl-isoxazol-4-yl)-methoxy)-N-piperidin-1-yl-nicotinamide] as the compound, how does the Ki read?
**A.** 4 nM

**Q.** Which Ki does the source give for CCCCc1noc(C)c1COc1ccc(C(=O)NN2CCOCC2)cn1 [Example 8, 6-((3-Butyl-5-methyl-isoxazol-4-yl)-methoxy)-N-morpholin-4-yl-nicotinamide] here?
**A.** 6.4 nM

**Q.** For Cc1onc(-c2ccccc2)c1COc1ccc(C(=O)NN2CCCC2)cn1 [Example 4, 6-((5-Methyl-3-phenyl-isoxazol-4-yl)-methoxy)-N-pyrrolidin-1-yl-nicotinamide], which Ki is on record?
**A.** 2.6 nM
